Columns and labels:
barnyardgrass = assay: Test A preemergence; type: in vivo, Echinochloa crus-galli
Summary of the method: (§1)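 Pre- and postemergence greenhouse screen. Soil: loam + sand. Spray carrier: solvent mixture, non-phytotoxic, with surfactant. Post timing at 1–2 leaves, height 2–10 cm. Readout: visual injury on a 0–100 scale roughly 10 days after application, untreated plants as reference.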

large (Lg) crabgrass = assay: Test A preemergence; type: in vivo, Digitaria sanguinalis
Summary of the method: as §1

wheat = assay: Test A preemergence; type: in vivo, Triticum aestivum
Summary of the method: as §1

giant foxtail = assay: Test A postemergence; type: in vivo, Setaria faberii; conditions: 0 to 100 scale where 0 is no effect and 100 is complete control
Summary of the method: as §1

morningglory [1] = assay: Test A postemergence; type: in vivo, Ipomoea spp.; conditions: 0 to 100 scale where 0 is no effect and 100 is complete control
Summary of the method: as §1

corn [2] = assay: Test A postemergence; type: in vivo, Zea mays; conditions: 0 to 100 scale where 0 is no effect and 100 is complete control
Summary of the method: as §1

Heteranthera limosa = assay: Test B flooded paddy test; type: in vivo; conditions: Flood, 250 g ai/ha, 0 to 100 scale where 0 is no effect and 100 is complete control
Summary of the method: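 2-leaf stage plants; pots flooded to 3 cm, compound added to paddy water, depth maintained. Greenhouse 13–15 d. Visual rating vs untreated controls, 0 (no effect) to 100 (complete control); dash = no result.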

Italian ryegrass = assay: Test C preemergence; type: in vivo, Lolium multiflorum
Summary of the method: (§2)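 Visual injury score versus untreated controls, 0 = no effect, 100 = complete control, taken 13 to 15 days after treatment in the greenhouse. Pre-emergence pots held loam/sand; post-emergence plants grew in sphagnum peat/vermiculite mix and were sprayed at the 1- to 4-leaf stage.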

ragweed = assay: Test C preemergence; type: in vivo, Ambrosia elatior
Summary of the method: as §2

oilseed rape = assay: Test C preemergence; type: in vivo, Brassica napus
Summary of the method: as §2

corn [3] = assay: Test C postemergence; type: in vivo, Zea mays
Summary of the method: as §2

morningglory [4] = assay: Test C postemergence; type: in vivo, Ipomoea coccinea
Summary of the method: as §2

pigweed = assay: Test C postemergence; type: in vivo, Amaranthus retroflexus
Summary of the method: as §2

kochia = assay: Test C postemergence; type: in vivo, Kochia scoparia
Summary of the method: as §2

wild oat = assay: Test C postemergence; type: in vivo, Avena fatua
Summary of the method: as §2

[5] = 31 g ai/ha, postemergence, visual rating, scale 0 to 100 (0 no effect, 100 complete control), 13 to 15 days
[6] = 125 g ai/ha, 0 to 100 scale where 0 is no effect and 100 is complete control
[7] = 500 g ai/ha, 0 to 100 scale, 0 no effect, 100 complete control, approx. 10 days
[8] = 16 g ai/ha, preemergence, scale 0 to 100 (0 no effect, 100 complete control)
[9] = 62 g ai/ha, preemergence, scale 0 (no effect) to 100 (complete control)
[10] = 125 g ai/ha, preemergence, scale 0 (no effect) to 100 (complete control)
[11] = Preemergence, 31 g ai/ha, scale 0 to 100, 0 no effect, 100 complete control
[12] = 16 g ai/ha, postemergence, visual rating, scale 0 to 100 (0 no effect, 100 complete control), 13 to 15 days
[13] = 125 g ai/ha, postemergence, visual rating, scale 0 to 100 (0 no effect, 100 complete control)
[14] = Postemergence, 62 g ai/ha, scale 0 to 100 (0 no effect, 100 complete control)

Structure (SMILES): FC(F)(F)c1cn(-c2ccccc2Oc2ncc(Cl)cn2)nn1 [Compound 166, 5-chloro-2-[2-[4-(trifluoromethyl)-1H-1,2,3-triazol-1-yl]phenoxy]pyrimidine]
- pest or weed control at 125 g/ha (barnyardgrass; Echinochloa crus-galli, pre-emergence, 240 h, 125 g ai/ha, 0 to 100 scale where 0 is no effect and 100 is complete control, read-out: Plant response rating, Barnyardgrass): 90%
- pest or weed control at 500 g/ha (barnyardgrass; Echinochloa crus-galli, pre-emergence, 240 h, 500 g ai/ha, 0 to 100 scale where 0 is no effect and 100 is complete control, read-out: Barnyardgrass plant response rating): 100%
- pest or weed control at 125 g/ha (large (Lg) crabgrass; Digitaria sanguinalis, pre-emergence, 240 h, 125 g ai/ha, 0 to 100 scale where 0 is no effect and 100 is complete control, read-out: Plant response rating, Crabgrass, Large): 100%
- pest or weed control at 500 g/ha (large (Lg) crabgrass; Digitaria sanguinalis, pre-emergence, 240 h, 500 g ai/ha, 0 to 100 scale where 0 is no effect and 100 is complete control, read-out: Crabgrass, Large plant response rating): 100%
- Wheat plant response rating (0 to 100 scale) (wheat; 125 g ai/ha): 50
- plant injury at 500 g/ha (wheat; Triticum aestivum, pre-emergence, 240 h, 500 g ai/ha, 0 to 100 scale where 0 is no effect and 100 is complete control, read-out: Wheat plant response rating): 80%
- pest or weed control at 125 g/ha (giant foxtail; Setaria faberi, post-emergence, 240 h, 125 g ai/ha, read-out: Foxtail, Giant plant response rating): 90%
- pest or weed control at 500 g/ha (giant foxtail; Setaria faberi, post-emergence, 240 h, 500 g ai/ha, read-out: Plant response rating, Foxtail, Giant): 90%
- Morningglory plant response rating (morningglory [1]; 125 g ai/ha): 100
- pest or weed control at 500 g/ha (morningglory [1]; Ipomoea, post-emergence, 240 h, 500 g ai/ha, read-out: Plant response rating, Morningglory): 100%
- plant injury at 125 g/ha (corn [2]; Zea mays, post-emergence, 240 h, 125 g ai/ha, read-out: Corn plant response rating): 50%
- Corn plant response rating (crop injury, 0 = no effect, 100 = complete kill) at 500 g/ha (corn [2]; Zea mays, post-emergence, 240 h, 500 g ai/ha): 60%
- pest or weed control at 250 g/ha (Heteranthera limosa; Heteranthera limosa, read-out: Plant response rating, Ducksalad): 95%
- pest or weed control at 16 g/ha (Italian ryegrass; Lolium multiflorum, pre-emergence, 16 g ai/ha, preemergence, scale 0 to 100 (0 no effect, 100 complete control), read-out: Ryegrass, Italian plant response rating): 5%
- pest or weed control at 62 g/ha (Italian ryegrass; Lolium multiflorum, pre-emergence, 62 g ai/ha, preemergence, scale 0 (no effect) to 100 (complete control), read-out: Ryegrass, Italian plant response rating): 90%
- pest or weed control at 125 g/ha (Italian ryegrass; Lolium multiflorum, pre-emergence, 125 g ai/ha, preemergence, scale 0 (no effect) to 100 (complete control), read-out: Ryegrass, Italian plant response rating): 90%
- pest or weed control at 16 g/ha (ragweed; Ambrosia artemisiifolia, pre-emergence, 16 g ai/ha, preemergence, scale 0 to 100 (0 no effect, 100 complete control), read-out: Ragweed plant response rating): 50%
- pest or weed control at 62 g/ha (ragweed; Ambrosia artemisiifolia, pre-emergence, 62 g ai/ha, preemergence, scale 0 (no effect) to 100 (complete control), read-out: Ragweed plant response rating): 95%
- pest or weed control at 125 g/ha (ragweed; Ambrosia artemisiifolia, pre-emergence, 125 g ai/ha, preemergence, scale 0 (no effect) to 100 (complete control), read-out: Ragweed plant response rating): 95%
- plant injury at 16 g/ha (oilseed rape; Brassica napus, pre-emergence, 16 g ai/ha, preemergence, scale 0 to 100 (0 no effect, 100 complete control), read-out: Oilseed Rape plant response rating): 90%
- plant injury at 62 g/ha (oilseed rape; Brassica napus, pre-emergence, 62 g ai/ha, preemergence, scale 0 (no effect) to 100 (complete control), read-out: Oilseed Rape plant response rating): 100%
- plant injury at 125 g/ha (oilseed rape; Brassica napus, pre-emergence, 125 g ai/ha, preemergence, scale 0 (no effect) to 100 (complete control), read-out: Oilseed Rape plant response rating): 100%
- plant injury at 16 g/ha (corn [3]; Zea mays, post-emergence, 16 g ai/ha, postemergence, 0 is no effect, 100 is complete control, read-out: Plant response rating (0 to 100), Corn): 5%
- plant injury at 31 g/ha (corn [3]; Zea mays, post-emergence, 31 g ai/ha, postemergence, visual rating, scale 0 to 100 (0 no effect, 100 complete control), 13 to 15 days, read-out: Corn plant response rating): 5%
- Corn plant response rating (crop injury, 0 = no effect, 100 = complete kill) at 125 g/ha (corn [3]; Zea mays, post-emergence, 125 g ai/ha, postemergence, visual rating, scale 0 to 100 (0 no effect, 100 complete control)): 15%
- Corn plant response rating (crop injury, 0 = no effect, 100 = complete kill) at 62 g/ha (corn [3]; Zea mays, post-emergence, Postemergence, 62 g ai/ha, scale 0 to 100 (0 no effect, 100 complete control)): 10%
- Morningglory plant response rating (morningglory [4]; [5]): 70
- pest or weed control at 16 g/ha (morningglory [4]; Ipomoea, post-emergence, 16 g ai/ha, postemergence, 0 is no effect, 100 is complete control, read-out: Plant response rating (0 to 100), Morningglory): 85%
- pest or weed control at 125 g/ha (morningglory [4]; Ipomoea, post-emergence, 125 g ai/ha, postemergence, visual rating, scale 0 to 100 (0 no effect, 100 complete control), read-out: Plant response rating, Morningglory): 95%
- pest or weed control at 62 g/ha (morningglory [4]; Ipomoea, post-emergence, Postemergence, 62 g ai/ha, scale 0 to 100 (0 no effect, 100 complete control), read-out: Plant response rating, Morningglory): 85%
- Pigweed plant response rating (pigweed; [5]): 85
- pest or weed control at 16 g/ha (pigweed; Amaranthus retroflexus, post-emergence, 16 g ai/ha, postemergence, 0 is no effect, 100 is complete control, read-out: Plant response rating (0 to 100), Pigweed): 80%
- pest or weed control at 125 g/ha (pigweed; Amaranthus retroflexus, post-emergence, 125 g ai/ha, postemergence, visual rating, scale 0 to 100 (0 no effect, 100 complete control), read-out: Plant response rating, Pigweed): 98%
- pest or weed control at 62 g/ha (pigweed; Amaranthus retroflexus, post-emergence, Postemergence, 62 g ai/ha, scale 0 to 100 (0 no effect, 100 complete control), read-out: Plant response rating, Pigweed): 90%
- pest or weed control at 16 g/ha (kochia; Bassia scoparia, post-emergence, 16 g ai/ha, postemergence, 0 is no effect, 100 is complete control, read-out: Plant response rating (0 to 100), Kochia): 90%
- pest or weed control at 31 g/ha (kochia; Bassia scoparia, post-emergence, 31 g ai/ha, postemergence, visual rating, scale 0 to 100 (0 no effect, 100 complete control), 13 to 15 days, read-out: Kochia plant response rating): 90%
- pest or weed control at 125 g/ha (kochia; Bassia scoparia, post-emergence, 125 g ai/ha, postemergence, visual rating, scale 0 to 100 (0 no effect, 100 complete control), read-out: Plant response rating, Kochia): 100%
- pest or weed control at 62 g/ha (kochia; Bassia scoparia, post-emergence, Postemergence, 62 g ai/ha, scale 0 to 100 (0 no effect, 100 complete control), read-out: Plant response rating, Kochia): 90%
- Oat, Wild plant response rating (wild oat; [5]): 10
- pest or weed control at 16 g/ha (wild oat; Avena fatua, post-emergence, 16 g ai/ha, postemergence, 0 is no effect, 100 is complete control, read-out: Plant response rating (0 to 100), Oat, Wild): 5%
- pest or weed control at 125 g/ha (wild oat; Avena fatua, post-emergence, 125 g ai/ha, postemergence, visual rating, scale 0 to 100 (0 no effect, 100 complete control), read-out: Plant response rating, Oat, Wild): 50%
- pest or weed control at 62 g/ha (wild oat; Avena fatua, post-emergence, Postemergence, 62 g ai/ha, scale 0 to 100 (0 no effect, 100 complete control), read-out: Plant response rating, Oat, Wild): 35%

Structure (SMILES): N#Cc1cnn(-c2c(C#N)cccc2Oc2ncc(F)cn2)c1 [Compound 111]
- Plant response rating, Barnyardgrass (barnyardgrass; [6]): 90
- Barnyardgrass plant response rating (barnyardgrass; [7]): 100
- Plant response rating, Crabgrass, Large (large (Lg) crabgrass; [6]): 100
- Crabgrass, Large plant response rating (large (Lg) crabgrass; [7]): 100
- Plant response rating, Wheat (wheat; [6]): 0
- Plant response rating, Foxtail, Giant (giant foxtail; 125 g ai/ha): 80
- Plant response rating, Foxtail, Giant (giant foxtail; 500 g ai/ha): 90
- Plant response rating, Morningglory (morningglory [1]; 500 g ai/ha): 90
- Plant response rating, Corn (corn [2]; 125 g ai/ha): 30
- Plant response rating, Corn (corn [2]; 500 g ai/ha): 90
- Plant response rating, Ducksalad (Heteranthera limosa): 70
- Ryegrass, Italian plant response rating (Italian ryegrass; [8]): 0
- Ryegrass, Italian plant response rating (Italian ryegrass; [9]): 40
- Ryegrass, Italian plant response rating (Italian ryegrass; [10]): 60
- Plant response rating, Ryegrass, Italian (Italian ryegrass; [11]): 0
- Ragweed plant response rating (ragweed; [8]): 10
- Ragweed plant response rating (ragweed; [9]): 100
- Ragweed plant response rating (ragweed; [10]): 100
- Plant response rating, Ragweed (ragweed; [11]): 50
- Oilseed Rape plant response rating (oilseed rape; [8]): 60
- Oilseed Rape plant response rating (oilseed rape; [9]): 98
- Oilseed Rape plant response rating (oilseed rape; [10]): 100
- Plant response rating, Oilseed Rape (oilseed rape; [11]): 90
- Corn plant response rating (corn [3]; [12]): 5
- Plant response rating, Corn (corn [3]; [13]): 15
- Plant response rating, Corn (corn [3]; [14]): 10
- Plant response rating, Morningglory (morningglory [4]; [13]): 98
- Plant response rating, Morningglory (morningglory [4]; [14]): 80
- Plant response rating, Pigweed (pigweed; [13]): 85
- Plant response rating, Pigweed (pigweed; [14]): 85
- Kochia plant response rating (kochia; [12]): 60
- Plant response rating, Kochia (kochia; [13]): 95
- Plant response rating, Kochia (kochia; [14]): 90
- Plant response rating, Oat, Wild (wild oat; [13]): 5
- Plant response rating, Oat, Wild (wild oat; [14]): 5

Source: patent publication US9695155B2, “Herbicidal substituted pyrimidinyloxy benzene compounds” (E. I. DU PONT DE NEMOURS AND COMPANY, priority 2013, dated 2017)
